US20250152675A1, “I-TYPE RECOMBINANT COLLAGEN WITH HIGH TRANSDERMAL ABSORBABILITY, AND USE THEREOF” (XI'AN GIANT BIOGENE TECHNOLOLGY CO., LTD, priority 2022, published 2025)
Residues, ends and D or L forms follow the SMILES beside them.

assay: Transdermal penetration through ex vivo mouse skin in a single-chamber diffusion cell, content by BCA kit; assay type: in vitro ADME, Kunming mice; conditions: collagen peptide 5 mg/ml in 0.9% NaCl, diffusion area 2.0 cm^2, 37.5° C.
Experimental: 1. Preparation of Mouse Skin Ex Vivo 10 Kunming mice of 20 to 22 g with half male and half […] were used in the experiment. After the mice were killed, the hairs on the abdomen were removed. Then the skin on the hair-removed area was peeled off, stripped of fat and tendons, and rinsed repeatedly with distilled water. After being washed, the mouse skins were rinsed with normal saline, then treated with 10% glycerol, and stored at −20° C. for use (use up within 7 days).
Single-chamber diffusion cell: The effective diffusion area of the diffusion cell is 2.0 cm^2, the volume of the receiving cell is 14 ml, the length of the custom-made stirrer is 1.4 cm, and the receiving solution is 0.9% NaCl solution.
The stored mouse skin was taken out, thawed, washed with normal saline, and sandwiched between the receiving chamber and the supplying chamber, with the medicated side facing the supplying chamber and the skin side facing the receiving chamber. The temperature of the water bath system was adjusted to 37.5° C., and the stirring speed was adjusted to 100 rpm/min. 0.9% NaCl solution pre-warmed at 37° C. was added to the receiving chamber and the air bubbles were exhausted, in order to reduce the interference, the inner surface of the mouse skin was firstly contacted with the receiving solution without medication and all the receiving solution was replaced. Then the 27 collagen peptides synthesized were prepared into 5 mg/ml solutions using 0.9% NaCl respectively, which were injected into the supplying chamber and firmly adhere to the mouse skin respectively. After 24 h, part of the receiving solution was absorbed with a syringe as the sample solution to determine the transdermal amount of collagen peptide.
The BCA kit method was used to determine the polypeptide content in the sample solution. […]

Q: With `CSCC[C@H](NC(=O)[C@@H]1CCCN1C(=O)CNC(=O)[C@@H]1CCCN1C(=O)[C@@H]1CCCN1C(=O)CNC(=O)[C@H](CCCNC(=N)N)NC(=O)[C@H](CCC(=O)O)NC(=O)CNC(=O)[C@H](CO)NC(=O)[C@H](C)NC(=O)CNC(=O)[C@H](CO)NC(=O)[C@@H]1CCCN1C(=O)CNC(=O)[C@H](CCC(N)=O)NC(=O)[C@H](CCCCN)NC(=O)CNC(=O)[C@@H]1CCCN1C(=O)[C@H](CCC(=O)O)NC(=O)CNC(=O)[C@H](CO)NC(=O)[C@@H]1CCCN1C(=O)CNC(=O)[C@@H]1CCCN1C(=O)[C@H](CC(C)C)NC(=O)CNC(=O)[C@@H]1CCCN1C(=O)[C@H](Cc1ccccc1)NC(=O)CNC(=O)[C@H](CCCNC(=N)N)NC(=O)[C@H](CCC(=O)O)NC(=O)CN)C(=O)NCC(=O)N1CCC[C@H]1C(=O)N1CCC[C@H]1C(=O)O` [compound 21] (H-GERGFPGLPGPSGEPGKQGPSGASGERGPPGPMGPP-OH; N-terminus and C-terminus assumed) as the compound, how does the 24h penetration amount read?
A: 2199.78 µg

Q: For `CC(C)C[C@H](NC(=O)CNC(=O)[C@@H](NC(=O)[C@@H](NC(=O)CN)C(C)C)C(C)C)C(=O)N1CCC[C@H]1C(=O)NCC(=O)N[C@@H](CCC(N)=O)C(=O)N[C@@H](CCCNC(=N)N)C(=O)NCC(=O)N[C@@H](CCC(=O)O)C(=O)N[C@@H](CCCNC(=N)N)C(=O)NCC(=O)N[C@@H](Cc1ccccc1)C(=O)N1CCC[C@H]1C(=O)NCC(=O)N[C@@H](CC(C)C)C(=O)N1CCC[C@H]1C(=O)NCC(=O)N1CCC[C@H]1C(=O)N[C@@H](CO)C(=O)NCC(=O)N[C@@H](CCC(=O)O)C(=O)N1CCC[C@H]1C(=O)NCC(=O)N[C@@H](CCCCN)C(=O)N[C@@H](CCC(N)=O)C(=O)NCC(=O)N1CCC[C@H]1C(=O)N[C@@H](CO)C(=O)NCC(=O)N[C@@H](C)C(=O)N[C@@H](CO)C(=O)NCC(=O)N[C@@H](CCC(=O)O)C(=O)N[C@@H](CCCNC(=N)N)C(=O)O` [compound 22] (H-GVVGLPGQRGERGFPGLPGPSGEPGKQGPSGASGER-OH; N-terminus and C-terminus assumed), which 24h penetration amount is on record?
A: 2092.23 µg

Q: For `CSCC[C@H](NC(=O)[C@@H]1CCCN1C(=O)CNC(=O)[C@@H]1CCCN1C(=O)[C@@H]1CCCN1C(=O)CNC(=O)[C@H](CCCNC(=N)N)NC(=O)[C@H](CCC(=O)O)NC(=O)CNC(=O)[C@H](CO)NC(=O)[C@H](C)NC(=O)CNC(=O)[C@H](CO)NC(=O)[C@@H]1CCCN1C(=O)CNC(=O)[C@H](CCC(N)=O)NC(=O)[C@H](CCCCN)NC(=O)CNC(=O)[C@@H]1CCCN1C(=O)[C@H](CCC(=O)O)NC(=O)CN)C(=O)NCC(=O)N1CCC[C@H]1C(=O)N1CCC[C@H]1C(=O)NCC(=O)N[C@@H](CC(C)C)C(=O)N[C@@H](C)C(=O)NCC(=O)N1CCC[C@H]1C(=O)N1CCC[C@H]1C(=O)NCC(=O)N[C@@H](CCC(=O)O)C(=O)N[C@@H](CO)C(=O)NCC(=O)N[C@@H](CCCNC(=N)N)C(=O)N[C@@H](CCC(=O)O)C(=O)O` [compound 23] (H-GEPGKQGPSGASGERGPPGPMGPPGLAGPPGESGRE-OH; N-terminus and C-terminus assumed), which 24h penetration amount is on record?
A: 2323.45 µg

Q: With `CSCC[C@H](NC(=O)[C@@H]1CCCN1C(=O)CNC(=O)[C@@H]1CCCN1C(=O)[C@@H]1CCCN1C(=O)CNC(=O)[C@H](CCCNC(=N)N)NC(=O)[C@H](CCC(=O)O)NC(=O)CN)C(=O)NCC(=O)N1CCC[C@H]1C(=O)N1CCC[C@H]1C(=O)NCC(=O)N[C@@H](CC(C)C)C(=O)N[C@@H](C)C(=O)NCC(=O)N1CCC[C@H]1C(=O)N1CCC[C@H]1C(=O)NCC(=O)N[C@@H](CCC(=O)O)C(=O)N[C@@H](CO)C(=O)NCC(=O)N[C@@H](CCCNC(=N)N)C(=O)N[C@@H](CCC(=O)O)C(=O)NCC(=O)N[C@@H](C)C(=O)N1CCC[C@H]1C(=O)NCC(=O)N[C@@H](C)C(=O)N[C@@H](CCC(=O)O)C(=O)NCC(=O)N[C@@H](CO)C(=O)N1CCC[C@H]1C(=O)NCC(=O)N[C@@H](CCCNC(=N)N)C(=O)N[C@@H](CC(=O)O)C(=O)O` [compound 24] (H-GERGPPGPMGPPGLAGPPGESGREGAPGAEGSPGRD-OH; N-terminus and C-terminus assumed) as the compound, how does the 24h penetration amount read?
A: 2234.67 µg

Q: Which 24h penetration amount does the source give for `CC(C)C[C@H](NC(=O)[C@H](CC(=O)O)NC(=O)CNC(=O)[C@@H]1CCCN1C(=O)[C@@H](NC(=O)CNC(=O)[C@H](CCC(N)=O)NC(=O)[C@H](CCC(=O)O)NC(=O)CNC(=O)[C@@H]1CCCN1C(=O)[C@H](CCCCN)NC(=O)CNC(=O)[C@H](C)NC(=O)[C@H](CCC(=O)O)NC(=O)CNC(=O)[C@@H]1CCCN1C(=O)[C@@H]1CCCN1C(=O)CN)C(C)C)C(=O)NCC(=O)N[C@@H](C)C(=O)N1CCC[C@H]1C(=O)NCC(=O)N1CCC[C@H]1C(=O)N[C@@H](CO)C(=O)NCC(=O)N[C@@H](C)C(=O)N[C@@H](CCCNC(=N)N)C(=O)NCC(=O)N[C@@H](CCC(=O)O)C(=O)N[C@@H](CCCNC(=N)N)C(=O)NCC(=O)N[C@@H](Cc1ccccc1)C(=O)N1CCC[C@H]1C(=O)NCC(=O)N[C@@H](CCC(=O)O)C(=O)N[C@@H](CCCNC(=N)N)C(=O)O` [compound 25] (H-GPPGEAGKPGEQGVPGDLGAPGPSGARGERGFPGER-OH; N-terminus and C-terminus assumed) here?
A: 2255.78 µg

Q: For `CC(C)[C@H](NC(=O)CNC(=O)[C@H](CCCNC(=N)N)NC(=O)[C@H](CCC(=O)O)NC(=O)CNC(=O)[C@@H]1CCCN1C(=O)[C@H](Cc1ccccc1)NC(=O)CNC(=O)[C@H](CCCNC(=N)N)NC(=O)[C@H](CCC(=O)O)NC(=O)CNC(=O)[C@H](CCCNC(=N)N)NC(=O)[C@H](C)NC(=O)CNC(=O)[C@H](CO)NC(=O)[C@@H]1CCCN1C(=O)CNC(=O)[C@@H]1CCCN1C(=O)[C@H](C)NC(=O)CN)C(=O)N[C@@H](CCC(N)=O)C(=O)NCC(=O)N1CCC[C@H]1C(=O)N1CCC[C@H]1C(=O)NCC(=O)N1CCC[C@H]1C(=O)N[C@@H](C)C(=O)NCC(=O)N1CCC[C@H]1C(=O)N[C@@H](CCCNC(=N)N)C(=O)NCC(=O)N[C@@H](C)C(=O)N[C@@H](CC(N)=O)C(=O)NCC(=O)N[C@@H](C)C(=O)N1CCC[C@H]1C(=O)O` [compound 26] (H-GAPGPSGARGERGFPGERGVQGPPGPAGPRGANGAP-OH; N-terminus and C-terminus assumed), which 24h penetration amount is on record?
A: 2054.99 µg

Q: For `CC(C)[C@H](NC(=O)CNC(=O)[C@H](CCCNC(=N)N)NC(=O)[C@H](CCC(=O)O)NC(=O)CN)C(=O)N[C@@H](CCC(N)=O)C(=O)NCC(=O)N1CCC[C@H]1C(=O)N1CCC[C@H]1C(=O)NCC(=O)N1CCC[C@H]1C(=O)N[C@@H](C)C(=O)NCC(=O)N1CCC[C@H]1C(=O)N[C@@H](CCCNC(=N)N)C(=O)NCC(=O)N[C@@H](C)C(=O)N[C@@H](CC(N)=O)C(=O)NCC(=O)N[C@@H](C)C(=O)N1CCC[C@H]1C(=O)NCC(=O)N[C@@H](CC(N)=O)C(=O)N[C@@H](CC(=O)O)C(=O)NCC(=O)N[C@@H](C)C(=O)N[C@@H](CCCCN)C(=O)NCC(=O)N[C@@H](CC(=O)O)C(=O)N[C@@H](C)C(=O)NCC(=O)N[C@@H](C)C(=O)N1CCC[C@H]1C(=O)NCC(=O)N[C@@H](C)C(=O)N1CCC[C@H]1C(=O)O` [compound 27] (H-GERGVQGPPGPAGPRGANGAPGNDGAKGDAGAPGAP-OH; N-terminus and C-terminus assumed), which 24h penetration amount is on record?
A: 2186.24 µg
